The subject of one test is HIV-1. As to the kind of experiment: combined inhibitory effect on HIV-1-induced cytopathic effect, isobologram method. The format is cell-based. Particulars: combination with nevirapine, MT-4 cells, FIG. 4. The protocol:
The antiviral effect of compound H was tested in combination with the nucleoside reverse transcriptase inhibitor zidovudine, the non-nucleoside reverse transcriptase inhibitor nevirapine and the protease inhibitor nelfinavir.
The combined inhibitory effect on HIV-1-induced cytopathic effect was evaluated by the isobologram method, as previously described by Elion et al. in J. Biol. Chem. (1954) 208:477-488 and by Baba et al. in Antimicrob. Agents Chemother. (1984) 25:515-517.
EC50, as defined herein before, was used for calculating the fractional inhibitory concentration (hereinafter referred as FIC). When the minimum FIC index corresponding to the FIC of combined compounds (e.g., FICx+FICy) is equal to 1.0, the combination is said to be additive; when it is beween 1.0 and 0.5, the combination is by definition said to be subsynergistic, and when it is <0.5, the combination is by definition said to be synergistic. When the minimum FIC index is between 1.0 and 2.0, the combination is said to be subantagonistic and, when it is >2.0, the combination is defined as antagonistic.
For orientation: Damage to the host cells serves as the signal in cytopathic effect assays.

In another test the test system is HIV-1 L4. It counts as cell-based.
The subject of the next test is HIV-2 (ROD). As to the kind of experiment: inhibition of virus-induced cytopathicity in MT-4 cells, HIV-2 (ROD). It counts as cell-based. Particulars: Human immunodeficiency virus 2, MT4, 120 h, read-out: EC50 HIV-2 ROD.
Test [1] deals with T1, recombinant His-tagged HIV-1 integrase (Human immunodeficiency virus type 1 group M subtype B, UniProt P04585). As to the kind of experiment: HIV-1 integrase strand transfer assay, oligonucleotide-based.
Test [2] has as its system HIV-1 strains L2, L4 and L6. As to the kind of experiment: antiviral activity against multi-drug resistant (MddNR) HIV-1 strains. The format is cell-based. Particulars: strains L2, L4 and L6 versus parental strain L1.
In test [3] the target is T1, recombinant His-tagged HIV-1 integrase. Put plainly: HIV-1 integrase 3′-processing assay, oligonucleotide-based.
Method: Reactions were started by the addition of the enzyme. Inhibitors were incubated shortly with the reaction components before the addition of integrase. Reactions were allowed to proceed at 37° C. for 7 minutes and stopped by the addition of formamide loading buffer (95% formamide, 30 mM ethylenediamine tetraacetic acid, 0.1% xylene cyanol, 0.1% bromophenol blue, 0.1% sodium dilaurylsulfate SDS). In the overall integration assay, this reaction was allowed to proceed for 60 minutes before the addition of a formamide dye.
The subject of a further test is HIV-2 (EHO). Put plainly: inhibition of virus-induced cytopathicity in MT-4 cells, HIV-2 (EHO). The format is cell-based. Particulars: Human immunodeficiency virus 2, MT4, 120 h, read-out: EC50 HIV-2 EHO.
The subject of test [4] is HIV-1(IIIB). Put plainly: time of addition experiment, viral p24 antigen production. It counts as cell-based. Particulars: MT-4 cells, m.o.i. 0.5, 250 μM, p24 at 31 hours post-infection. The protocol: A time of addition experiment was carried out in order to investigate which step of the replicative cycle was inhibited by compound H. Briefly, this experiment determines how long the addition of an anti-HIV compound can be postponed before losing its antiviral activity in the viral replication cycle. MT-4 cells were infected with HIV-1(IIIB) at a multiplicity of infection (m.o.i.) of 0.5 in order to synchronize all steps of viral replication and the various antiviral test compounds were added at different times (ranging from 0 up to 26 hours) after infection. Viral p24 antigen production was determined 31 hours post-infection (using HIV-1 p24 Core Profile ELISA, Du Pont, Dreieich, Germany) and is expressed as the log10 of the p24 Ag content in pg/ml. Reference compounds with a known mode of action were included in this experiment. Dextran sulfate, a polyanion, interferes with binding of the virus to the cell. The nucleoside analogue AZT inhibits the reverse transcription process. Ritonavir is a proteolytic cleavage inhibitor. […]. Compound H was added at 250 μM. In FIG. 1 showing the results of this experiment, the following symbols were used: (●) for control, (▴) for dextran sulfate (20 μM), (▪) for AZT (1.9 μM), (▪) for ritonavir (2.8 μM) and (*) for compound H (250 μM).

For test [5], the system named is HIV-1 (NDK, NL4.3 and L1), HIV-2 (ROD and EHO) and SIV (MAC251). Put plainly: antiviral activity against several HIV and SIV strains. It counts as cell-based. Particulars: range over HIV-1 (NDK, NL4.3 and L1).
A further test relates to HIV-1 L1. As to the kind of experiment: inhibition of virus-induced cytopathicity in MT-4 cells, HIV-1 clinical isolate L1. Particulars: Human immunodeficiency virus 1, MT4, 120 h, read-out: EC50 HIV-1 L1. The format is cell-based.
The subject of the next test is HIV-1 L6. It counts as cell-based. Particulars: L6 versus wild type strain L1.
Test [6] has as its system HIV-1(IIIB). As to the kind of experiment: inhibition of virus-induced cytopathicity in MT-4 cells, HIV-1 (IIIB). Particulars: for EC50: MT-4 cells, viral cytopathic effect, 5 days post-infection. It counts as cell-based.
A further test deals with HIV-1 NL43/AMD3100. As to the kind of experiment: microbe, parasite or virus in culture. It counts as cell-based.
Test [7] has as its target T2, Recombinant HIV-1 RT (HXB2) (Human immunodeficiency virus type 1 group M subtype B, UniProt P04585).
T2 construct: Recombinant HIV-1 RT (HXB2) was obtained as described by Jonckheere et al; made in house
Put plainly: inhibition of HIV-1 reverse transcriptase enzymatic activity. It counts as biochemical. The source says:
Poly(rC).oligo(dG) and poly (rA).oligo(dT) were used as template-primers, and 8-[^3H]-dGTP and [^3H]-dTTP were used as radiolabelled substrates.

A value given as a limit tells only on which side of the number the result lay.

For `O=[N+]([O-])c1ccc(C2c3c(O)nc(S)nc3Oc3nc(S)nc(O)c32)cc1` [compound H, 5-(4-nitrophenyl)-2,8-dithiol-4,6-dihydroxy-5H-pyrano[2,3-d:6,5-d′]dipyrimidine], the “added values FICnevirapine+FICV-165” value in the test with HIV-1 was “below 0.5”. Moreover, the EC50 in the test on HIV-1 L4 (Human immunodeficiency virus 1) was 11.7 ± 0.7 µM; in the test with HIV-2 (ROD), 30 ± 6.2 µM; in the test with HIV-2 (EHO) it was 3.7 ± 0.1 µM; in [5], 5.5 to 30 µM; with HIV-1 L1, 3.7 ± 1.8 µM; in the test with HIV-1(IIIB) [6] (Human immunodeficiency virus 1, IIIB, MT4, 120 h), 11.4 µM. Further, the EC50 was found to be 8.9 ± 0.7 µM in the test on HIV-1(IIIB) [6] and 19.1 ± 1.4 µM with HIV-1 NL43/AMD3100 (Human immunodeficiency virus 1, NL43). Besides, the entries for the “fold increase in EC50” value in the test with HIV-1 L4 (L4 versus wild type strain L1), with HIV-1 L6 and with HIV-1 NL43/AMD3100 (NL43/AMD3100 versus wild type strain NL4.3) were 3.2, 2.8 and 1.3, respectively. Also, the IC50 is 16.1 ± 10.7 µM in test [1]; 0.9 ± 0.4 µM in test [3]; 24.6 ± 7.2 µM in [7] (IC50 Poly(A).oligo(dT), template-primer poly(A).oligo(dT)); 4.8 ± 2.2 µM in test [7] (IC50 poly(C).oligo(dG), template-primer poly(C).oligo(dG)). In test [1] (in words), the “effect on the DNA strand transfer reaction” value is recorded as “strong inhibitory effect”. Moreover, in test [2], the “reduction in inhibitory potency” value was no more than 3 fold. Moreover, the “inhibition of the 3-processing reaction” value in test [3] (in words) was “inhibited”. The “time the addition can be postponed after virus infection” value with HIV-1(IIIB) [4] came out at 6 h. Also, the “activity against the replication of HIV-1(IIIB)” value with HIV-1(IIIB) [6] (in words) is listed as “active”. Also, in the test on HIV-1 NL43/AMD3100 (in words), the “activity against HIV-1 strain resistant to bicyclam” value is listed as “active”.

As usually defined, the EC50 is the midpoint of the concentration-response curve. By IC50 is commonly meant the midpoint of a concentration-inhibition curve.

(Values after patent US20030187003A1, “Pharmaceutical compositions and method for the treatment of retroviral infections” (priority 2000, published 2003).)
